What follows are molecules tested against T1, Human MGAT-2 (Homo sapiens, UniProt Q3SYC2) (assay: MGAT LCMS Assay). Conditions: not given.
T1 construct: made in house; host or cells: Sf9 cells (membrane preparation)
Type: biochemical
Summary of the method: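 Robotic enzyme reaction shaken 10 min, quenched with ice-cold methanol containing 1 μg/mL 1,2-distearoyl-rac-glycerol internal standard. Diolein product measured by LC/MS (C8 column, 65° C, APCI(+) triple quad). IC50 derived from diolein/internal standard peak area ratio.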

T1 sequence (Q3SYC2 whole entry): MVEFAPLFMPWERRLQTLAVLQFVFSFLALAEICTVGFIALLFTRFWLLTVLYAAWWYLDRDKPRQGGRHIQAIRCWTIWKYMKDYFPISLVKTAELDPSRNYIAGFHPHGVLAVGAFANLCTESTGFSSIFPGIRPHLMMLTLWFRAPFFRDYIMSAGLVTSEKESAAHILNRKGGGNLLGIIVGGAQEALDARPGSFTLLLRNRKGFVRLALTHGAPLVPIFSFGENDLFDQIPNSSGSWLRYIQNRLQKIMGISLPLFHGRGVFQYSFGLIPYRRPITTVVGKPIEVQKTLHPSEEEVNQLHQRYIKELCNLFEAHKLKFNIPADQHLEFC

**Q.** With `CCc1ccc(-c2cc(-c3ccc(OCCCCCC(F)(F)F)cc3C(F)(F)F)[nH]c(=O)c2-c2nn[nH]n2)s1` [Example 151, 4-(5-Ethylthiophen-2-yl)-3-(2H-tetrazol-5-yl)-6-(4-((6,6,6-trifluorohexyl)oxy)-2-(trifluoromethyl)phenyl)pyridin-2(1H)-one] as the molecule, how does the IC50 read?
**A.** 0.3 nM

Same assay, conditions: human MGAT2 membranes expressed in Sf9 cells; 100 μM 2-oleoylglycerol, 15 μM oleoyl-coenzyme A; read-out: h-MGAT LCMS IC50

**Q.** With `CCc1ccc(-c2cc(-c3ccc(OCCCC(F)(F)F)cc3F)[nH]c(=O)c2-n2nn[nH]c2=O)s1` [Example 152, 4-(5-Ethylthiophen-2-yl)-6-(2-fluoro-4-(4,4,4-trifluorobutoxy)phenyl)-3-(5-oxo-4,5-dihydro-1H-tetrazol-1-yl)pyridin-2(1H)-one] as the molecule, how does the IC50 read?
**A.** 23 nM

**Q.** With `Cc1ccc(-c2cc(-c3ccc(OCCCC(F)(F)F)cc3)[nH]c(=O)c2-n2nn[nH]c2=O)cc1` [Example 153, 3-(5-Oxo-4,5-dihydro-1H-tetrazol-1-yl)-4-(p-tolyl)-6-(4-(4,4,4-trifluorobutoxy)phenyl)pyridin-2(1H)-one] as the molecule, how does the IC50 read?
**A.** 49 nM

**Q.** Which IC50 does the source give for `CCc1ccc(-c2cc(-c3ccc(OCCCCCC(F)(F)F)cc3C(F)(F)F)[nH]c(=O)c2C(=O)NS(=O)(=O)C2CC2)s1` [Example 154, N-(Cyclopropanesulfonyl)-4-(5-ethylthiophen-2-yl)-2-oxo-6-{4-[(6,6,6-trifluorohexyl)oxy]-2-(trifluoromethyl)phenyl}-1,2-dihydropyridine-3-carboxamide] here?
**A.** 2 nM

**Q.** With `O=c1[nH]c(-c2ccc(OCCCCCC(F)(F)F)cc2C(F)(F)F)cc(-c2ccn(CC3CC3)n2)c1-c1nn[nH]n1` [Example 155, 4-[1-(Cyclopropylmethyl)-1H-pyrazol-3-yl]-3-(2H-1,2,3,4-tetrazol-5-yl)-6-{4-[(6,6,6-trifluorohexyl)oxy]-2-(trifluoromethyl)phenyl}-1,2-dihydropyridin-2-one] as the molecule, how does the IC50 read?
**A.** 3 nM

**Q.** For `CCc1ccc(-c2cc(-c3ccc(OCCCCCC(F)(F)F)cc3)[nH]c(=O)c2-n2nn[nH]c2=O)s1` [Example 156, 4-(5-Ethylthiophen-2-yl)-3-(5-oxo-4,5-dihydro-1H-1,2,3,4-tetrazol-1-yl)-6-{4-[(6,6,6-trifluorohexyl)oxy]phenyl}-1,2-dihydropyridin-2-one], which IC50 is on record?
**A.** 143 nM

**Q.** For `CCc1ccc(-c2cc(-c3ccc(OCCCCCC(F)(F)F)cc3F)[nH]c(=O)c2-n2nn[nH]c2=O)s1` [Example 157, 4-(5-Ethylthiophen-2-yl)-6-{2-fluoro-4-[(6,6,6-trifluorohexyl)oxy]phenyl}-3-(5-oxo-4,5-dihydro-1H-1,2,3,4-tetrazol-1-yl)-1,2-dihydropyridin-2-one], which IC50 is on record?
**A.** 46 nM

**Q.** With `O=c1[nH]c(-c2ccc(OCCCCCC(F)(F)F)cc2)cc(-c2nn(CC3CC3)cc2Cl)c1-n1nn[nH]c1=O` [Example 158, 4-[4-Chloro-1-(cyclopropylmethyl)-1H-pyrazol-3-yl]-3-(5-oxo-4,5-dihydro-1H-1,2,3,4-tetrazol-1-yl)-6-{4-[(6,6,6-trifluorohexyl)oxy]phenyl}-1,2-dihydropyridin-2-one] as the molecule, how does the IC50 read?
**A.** 6 nM

**Q.** `Cc1ccc(-c2cc(-c3ccc(OCCCCCC(F)(F)F)cc3F)[nH]c(=O)c2-n2nn[nH]c2=O)cc1` [Example 159, 6-{2-Fluoro-4-[(6,6,6-trifluorohexyl)oxy]phenyl}-4-(4-methylphenyl)-3-(5-oxo-4,5-dihydro-1H-1,2,3,4-tetrazol-1-yl)-1,2-dihydropyridin-2-one] was tested. Which IC50 did it give?
**A.** 38 nM

**Q.** `O=C(NS(=O)(=O)C1CC1)c1c(-c2ccn(CC3CC3)n2)cc(-c2ccc(OCCCCCC(F)(F)F)cc2C(F)(F)F)[nH]c1=O` [Example 160, N-(Cyclopropanesulfonyl)-4-[1-(cyclopropylmethyl)-1H-pyrazol-3-yl]-2-oxo-6-{4-[(6,6,6-trifluorohexyl)oxy]-2-(trifluoromethyl)phenyl}-1,2-dihydropyridine-3-carboxamide] was tested. Which IC50 did it give?
**A.** 12 nM

**Q.** Which IC50 does the source give for `CCc1ccc(-c2cc(-c3ccc(C4CCC(C)(C)CC4)cc3)[nH]c(=O)c2-c2nn[nH]n2)s1` [Example 161, 6-[4-(4,4-Dimethylcyclohexyl)phenyl]-4-(5-ethylthiophen-2-yl)-3-(2H-1,2,3,4-tetrazol-5-yl)-1,2-dihydropyridin-2-one] here?
**A.** 76 nM

**Q.** Which IC50 does the source give for `O=c1[nH]c(-c2ccc(OCCCCCC(F)(F)F)cc2)cc(-c2ccc(OC(F)F)cc2)c1-n1nn[nH]c1=O` [Example 162, 4-[4-(Difluoromethoxy)phenyl]-3-(5-oxo-4,5-dihydro-1H-1,2,3,4-tetrazol-1-yl)-6-{4-[(6,6,6-trifluorohexyl)oxy]phenyl}-1,2-dihydropyridin-2-one] here?
**A.** 1970 nM

**Q.** With `CCc1ccc(-c2cc(-c3ccc(C4=CCC(C(C)(C)C)CC4)cc3)[nH]c(=O)c2-c2nn[nH]n2)s1` (centres unmarked) [Example 163, 6-[4-(4-tert-Butylcyclohex-1-en-1-yl)phenyl]-4-(5-ethylthiophen-2-yl)-3-(2H-1,2,3,4-tetrazol-5-yl)-1,2-dihydropyridin-2-one] as the molecule, how does the IC50 read?
**A.** 69 nM

**Q.** For `CCCC1CC=C(c2ccc(-c3cc(-c4ccc(CC)s4)c(-c4nn[nH]n4)c(=O)[nH]3)cc2)CC1` (centres unmarked) [Example 164, 4-(5-Ethylthiophen-2-yl)-6-[4-(4-propylcyclohex-1-en-1-yl)phenyl]-3-(2H-1,2,3,4-tetrazol-5-yl)-1,2-dihydropyridin-2-one], which IC50 is on record?
**A.** 55 nM

**Q.** With `O=c1cc(-c2ncc(C3CC3)s2)cc(-c2ccc(OCCCCCC(F)(F)F)cc2F)[nH]1` [Example 165, 4-(5-Cyclopropyl-1,3-thiazol-2-yl)-6-{2-fluoro-4-[(6,6,6-trifluorohexyl)oxy]phenyl}-1,2-dihydropyridin-2-one] as the molecule, how does the IC50 read?
**A.** 420 nM

**Q.** How did the IC50 turn out when `CCc1cnc(-c2cc(-c3ccc(OCCCCCC(F)(F)F)cc3F)[nH]c(=O)c2)s1` [Example 166, 4-(5-Ethyl-1,3-thiazol-2-yl)-6-{2-fluoro-4-[(6,6,6-trifluorohexyl)oxy]phenyl}-1,2-dihydropyridin-2-one] was run?
**A.** 70 nM

**Q.** How did the IC50 turn out when `CCCC1CCC(c2ccc(-c3cc(-c4ccc(CC)s4)c(-c4nn[nH]n4)c(=O)[nH]3)cc2)CC1` (centres unmarked) [Example 167, 4-(5-Ethylthiophen-2-yl)-6-[4-(4-propylcyclohexyl)phenyl]-3-(2H-1,2,3,4-tetrazol-5-yl)-1,2-dihydropyridin-2-one] was run?
**A.** 39 nM

**Q.** For `O=c1[nH]c(-c2ccc(OCCCCCC(F)(F)F)cc2F)cc(-c2ccn(CC3CC3)n2)c1-n1nn[nH]c1=O` [Example 168, 4-[1-(Cyclopropylmethyl)-1H-pyrazol-3-yl]-6-{2-fluoro-4-[(6,6,6-trifluorohexyl)oxy]phenyl}-3-(5-oxo-4,5-dihydro-1H-1,2,3,4-tetrazol-1-yl)-1,2-dihydropyridin-2-one], which IC50 is on record?
**A.** 373 nM

**Q.** `O=c1[nH]c(-c2ccc(OCCCCCC(F)(F)F)cc2F)cc(-c2nn(CC3CC3)cc2Cl)c1-n1nn[nH]c1=O` [Example 169, 4-[4-Chloro-1-(cyclopropylmethyl)-1H-pyrazol-3-yl]-6-{2-fluoro-4-[(6,6,6-trifluorohexyl)oxy]phenyl}-3-(5-oxo-4,5-dihydro-1H-1,2,3,4-tetrazol-1-yl)-1,2-dihydropyridin-2-one] was tested. Which IC50 did it give?
**A.** 9 nM

**Q.** Which IC50 does the source give for `CC1(C)CC=C(c2ccc(-c3cc(-c4ccn(CC5CC5)n4)c(-c4nn[nH]n4)c(=O)[nH]3)cc2)CC1` [Example 170, 4-[1-(Cyclopropylmethyl)-1H-pyrazol-3-yl]-6-[4-(4,4-dimethylcyclohex-1-en-1-yl)phenyl]-3-(2H-1,2,3,4-tetrazol-5-yl)-1,2-dihydropyridin-2-one] here?
**A.** 17 nM

Source: patent publication US9974778B2, “Substituted pyridinones as MGAT2 inhibitors” (BRISTOL-MYERS SQUIBB COMPANY, priority 2014, dated 2018)
